Experiments:
Type in all cases: cell-based
[1] = tested on: 1A6; assay: MTT cell proliferation assay, 1A6; conditions: 1A6 cell line (urinary bladder)
Method: (§1) The antiviral and antitumor activities of the compounds of the invention were evaluated by a cellular proliferation assay. The MTT [3-(4,5-dimethylthiazol-2-yl)-2,5-diphenyltetrazolium bromide] assay, first described by Mosmann (Mosmann T., “Rapid colorimetric assay for cellular growth and survival: application to proliferation and cytotoxicity assays,” J. Immunol. Methods 1983 Dec. 16; 65(1-2):55-63, and incorporated by reference in its entirety) is based on the ability of a mitochondrial dehydrogenase enzyme from viable cells to cleave the tetrazolium rings of the pale yellow MTT. The cleavage reaction form a dark blue formazan crystals which is largely impermeable to cell membranes and accumulation within healthy cells. Solubilisation of the cells by the addition of a detergent liberates and solubilizes the crystals. The number of surviving cells is directly proportional to the level of the formazan product created. The color can then be quantified using a simple colorimetric assay. The results can be read on a multiwell scanning spectrophotometer (ELISA reader).
(§2) In Tables 1 and 2, IC50 values are presented for various cell lines in micromolar units (μm), “Gemci” is Gemcitabine, and “5-FU” is 5-fluorouracil.

[2] = tested on: 22Rv1; assay: MTT cell proliferation assay, 22Rv1; conditions: 22Rv1 cell line (prostate)
Method: as §1, §2

[3] = tested on: 786-O; assay: MTT cell proliferation assay, 786-O; conditions: 786-O cell line (kidney)
Method: as §1, §2

[4] = tested on: BxPC-3; assay: MTT cell proliferation assay, BxPC-3; conditions: BxPC-3 cell line (pancreas)
Method: as §1, §2

[5] = tested on: Colo 829; assay: MTT cell proliferation assay, Colo 829; conditions: Colo 829 cell line (skin)
Method: as §1, §2

[6] = tested on: DLD-1; assay: MTT cell proliferation assay, DLD-1; conditions: DLD-1 cell line (colon)
Method: as §1, §2

[7] = tested on: HCC1143; assay: MTT cell proliferation assay, HCC1143; conditions: HCC1143 cell line (mammary gland; breast)
Method: as §1, §2

[8] = tested on: HCT 116; assay: MTT cell proliferation assay, HCT 116; conditions: HCT 116 cell line (colon)
Method: as §1, §2

[9] = tested on: HL-60; assay: MTT cell proliferation assay, HL-60; conditions: HL-60 cell line (acute promyelocytic leukemia)
Method: as §1, §2

[10] = tested on: MCF7; assay: MTT cell proliferation assay, MCF7; conditions: MCF7 cell line (mammary gland; breast)
Method: as §1, §2

[11] = tested on: MOLT-4; assay: MTT cell proliferation assay, MOLT-4
Method: as §1, §2

[12] = tested on: NCI H1395; assay: MTT cell proliferation assay, NCI H1395
Method: as §1, §2

[13] = tested on: NCI H2052; assay: MTT cell proliferation assay, NCI H2052; conditions: NCI H2052 cell line (tumor stage 4 derived from pleural effusion)
Method: as §1, §2

[14] = tested on: OVCAR3; assay: MTT cell proliferation assay, OVCAR3; conditions: OVCAR3 cell line (ovary)
Method: as §1, §2

[15] = tested on: PFSK-1; assay: MTT cell proliferation assay, PFSK-1; conditions: PFSK-1 cell line (brain)
Method: as §1, §2

[16] = tested on: ZR-75-1; assay: MTT cell proliferation assay, ZR-75-1; conditions: ZR-75-1 cell line (mammary gland; breast)
Method: as §1, §2

[17] = Homo sapiens, MOLT-4, MOLT-4 cell line (acute lymphoblastic leukemia)
[18] = Homo sapiens, NCI-H1395, NCI H1395 cell line (lung)

Molecule	IC50 [1] [µM]	IC50 ([2]; Homo sapiens) [µM]	IC50 ([3]; Homo sapiens, 786-0) [µM]	IC50 ([4]; Homo sapiens) [µM]	IC50 ([5]; Homo sapiens) [µM]	IC50 ([6]; Homo sapiens) [µM]	IC50 ([7]; Homo sapiens) [µM]	IC50 ([8]; Homo sapiens) [µM]	IC50 ([9]; Homo sapiens) [µM]	IC50 ([10]; Homo sapiens) [µM]	IC50 [11, 17] [µM]	IC50 [12, 18] [µM]	IC50 ([13]; Homo sapiens) [µM]	IC50 ([14]; Homo sapiens, OVCAR-3) [µM]	IC50 ([15]; Homo sapiens) [µM]	IC50 ([16]; Homo sapiens) [µM]	other results
C[C@@]1(CO)[C@@H](CO)O[C@@H](n2cc(F)c(N)nc2=O)[C@@H]1O [LCB-1096, 4-amino-5-fluoro-1-((2R,3R,4S,5S)-3-hydroxy-4,5-bis(hydroxymethyl)-4-methyltetrahydrofuran-2-yl)pyrimidin-2(1H)-one]	> 500	> 500	> 500	> 500	> 500	> 500	> 500	> 500	> 500	> 500	> 500	> 500	> 500	> 500	> 500	> 500	
CC12C(=O)OC[C@H]1O[C@@H](n1ccc(N)nc1=O)C2O (mixture of isomers) [LCB-1079, 4-amino-1-((2R,3R,3αR,6αS)-3-hydroxy-3α-methyl-4-oxohexahydrofuro[3,4-β]furan-2-yl)pyrimidin-2(1H)-one]	350		460	160		440	480	410	250	280	260	> 500	310	280	130	380	
C[C@]1(CO)C(O)[C@H](n2ccc(N)nc2=O)O[C@@H]1CO (stereo partly shown) [compound 1056]	> 500		> 500	> 500	> 500	> 500	> 500	> 500	> 500	> 500		440	> 500	> 500	> 500	> 500	
((2S,3S,4R,5R)-5-(2-amino-6-chloro-9H-purin-9-yl)-4-hydroxy-3-methyltetrahydrofuran-2,3-diyl)dimethanol (A), ((2S,3S,4R,5R)-5-(6-amino-2-chloro-9H-purin-9-yl)-4-hydroxy-3-methyltetrahydrofuran-2,3-diyl)dimethanol (B) [LCB-1094]	> 500																IC50 [2]: > 500 µM; IC50 [3]: > 500 µM; IC50 [4]: > 500 µM; IC50 [5]: > 500 µM; IC50 [6]: > 500 µM; IC50 [7]: > 500 µM; IC50 [8]: > 500 µM; IC50 [9]: > 500 µM; IC50 [10]: > 500 µM; IC50 ([11]; MOLT-4 cell line (acute lymphoblastic leukemia)): > 500 µM; IC50 ([12]; NCI H1395 cell line (lung)): > 500 µM; IC50 [13]: > 500 µM; IC50 [14]: > 500 µM; IC50 [15]: > 500 µM; IC50 [16]: > 500 µM
C[C@]1(C(=O)NN)[C@@H](CO)O[C@@H](n2cc(F)c(N)nc2=O)[C@@H]1O [LCB-1085, (2S,3R,4R,5R)-5-(4-amino-5-fluoro-2-oxopyrimidin-1(2H)-yl)-4-hydroxy-2-(hydroxymethyl)-3-methyltetrahydrofuran-3-carbohydrazide]	> 100	> 100	> 100	> 100	> 100	> 100	> 100	> 100	> 100	> 100	80	> 100	> 100	> 100	> 100	> 100	
CC12C(=O)OC[C@H]1O[C@@H](n1cc(F)c(N)nc1=O)C2O (mixture of isomers) [LCB-1080, 4-amino-5-fluoro-1-((2R,3R,3αR,6αS)-3-hydroxy-3α-methyl-4-oxohexahydrofuro[3,4-β]furan-2-yl)pyrimidin-2(1H)-one]	> 500		> 500		> 500	> 500	> 500		> 500	> 500	> 500	> 500	> 500		> 500	> 500	
Nc1ccn([C@@H]2O[C@H](CO)[C@@H](O)C2(F)F)c(=O)n1 [Gemci., Gemcitabine, reference compound]	5	> 500	> 500	< 0.5	< 0.5	> 500	400	< 0.5	< 0.5	> 500	< 0.5	< 0.5	> 500	5	> 500	> 500	
CCOC(=O)C1(C)[C@@H](CO)O[C@H](n2cnc3c(NN)nc(NN)nc32)[C@@H]1O (stereo partly shown) [LCB-1086]	> 100	> 100	> 100	90	> 100	> 100	> 100	> 100	> 100	> 100	> 100	> 100		> 100	98	> 100	
O=c1[nH]cc(F)c(=O)[nH]1 [5-FU, 5-fluorouracil, reference compound]	300	50	110	220	170	470	340	25	25	40	20	> 500	> 500	35	460	> 500	
C[C@@]1(CO)[C@@H](CO)O[C@@H](n2ccc(N)nc2=O)[C@@H]1O [LCB-1095, 4-amino-1-((2R,3R,4S,5S)-3-hydroxy-4,5-bis(hydroxymethyl)-4-methyltetrahydrofuran-2-yl)pyrimidin-2(1H)-one]	> 500	> 500	> 500	> 500	460	> 500	> 500	> 500	> 500	430	> 500	> 500	> 500	> 500	> 500	> 500	
C[C@]1(C(N)=O)[C@H](O)[C@@H](n2ccc(N)nc2=O)O[C@@H]1CO [LCB-1087, (2S,3S,4S,5S)-5-(4-amino-2-oxopyrimidin-1(2H)-yl)-4-hydroxy-2-(hydroxymethyl)-3-methyltetrahydrofuran-3-carboxamide]	> 500	> 500	> 500	> 500	> 500	> 500	> 500	> 500	> 500	> 500	> 500	> 500		> 500	> 500	> 500	
CC1(CO)C(O)C(n2cc(F)c(N)nc2=O)O[C@@H]1CO (stereo partly drawn) [LCB-1082, 4-amino-5-fluoro-1-((2S,3S,4S,5S)-3-hydroxy-4,5-bis(hydroxymethyl)-4-methyltetrahydrofuran-2-yl)pyrimidin-2(1H)-one; 4-amino-5-fluoro-1-((2R,3R,4S,5S)-3-hydroxy-4,5-bis(hydroxymethyl)-4-methyltetrahydrofuran-2-yl)pyrimidin-2(1H)-one]	> 500		> 500		> 500	> 500	> 500		> 500	> 500	> 500	> 500	> 500		> 500	> 500	

From patent publication US8846636B2, “Nucleoside analogues with quaternary carbon stereogenic centers and methods of use” (LCB Pharma Inc., priority 2008, dated 2014)
